# Measured values taken from ChEMBL document CHEMBL1129902, “Bioactivatable derivatives of 8-substituted cAMP-analogues” (Bioorg Med Chem Lett, 1997).
# Tests used:
# [1] = Lipophilicity relative to cAMP (log Kw=1); assay type: physicochemical
# [2] = target: cAMP-dependent protein kinase (PKA) (Homo sapiens, UniProt P22694+P17612+P22612); experiment: Activation of cAMP dependent protein kinase (PKA); assay type: functional
SMILES,Log Kw [1],EC50 [2]
CC(=O)OCOP1(=O)OC[C@@H]2O[C@@H](n3c(N4CCCCC4)nc4c(N)ncnc43)[C@H](O)[C@@H]2O1 (some centres not stated),> 3.5,10 µM
CC(=O)OCOP1(=O)OC[C@@H]2O[C@@H](n3c(Sc4ccc(Cl)cc4)nc4c(N)ncnc43)[C@H](O)[C@@H]2O1 (some centres not stated),> 4,0.15 µM
CC(=O)OCOP1(=O)OC[C@@H]2O[C@@H](n3c(NCCO)nc4c(N)ncnc43)[C@H](O)[C@@H]2O1 (some centres not stated),> 2,
CC(=O)OCOP1(=O)OC[C@@H]2O[C@@H](n3c(Br)nc4c(N)ncnc43)[C@H](O)[C@@H]2O1 (some centres not stated),> 2,
Nc1ncnc2c1nc(Sc1ccc(Cl)cc1)n2[C@@H]1O[C@@H]2COP(=O)(O)O[C@H]2[C@H]1O,,20 µM
